Tests used:
Phospho-ERK (pERK) = experiment: Western blotting of cell signaling material, ERK phosphorylation; type: cell-based, human; settings: HFDPC, 1 and 10 μg/ml, 30 minutes and 60 minutes
Experimental: (§1) In order to observe the changes in the phosphorylation of ERK and the expression of PI3K, which are main signaling materials involved in cell proliferation in the human hair follicle dermal papilla cells, the cells were treated with the peptides of the present invention for 30 minutes and 60 minutes, and then subjected to western blotting using specific antibodies, thereby observing the pERK and PI3K changes. The test was carried out using anti-pERK antibody (Santa Cruz Biotechnology, USA) and anti-pPI3K antibody (Santa Cruz Biotechnology, USA).
(§2) The cells were treated with the cell lysis buffer to obtain a lysate, followed by protein quantification, and then western blotting was performed with respect to Phospho-ERK (pERK), PI3K, and β-catenin.

MC3T3-E1 cells = experiment: ALP staining of MC3T3-E1 cells; type: cell-based, mouse; settings: MC3T3-E1, 10 μg/ml and 50 μg/ml, 14 days
Experimental: The mouse osteoblast line, MC3T3-E1 cells were seeded on a 24-well plate at 4×10^4 cells/well, and then incubated overnight. After the exchange with a medium containing 50 μg/ml ascorbic acid+10 mM b-glycerophosphate, the cells were treated with each peptide at concentrations of 10 μg/ml and 50 μg/ml, and incubated for 14 days to induce differentiation. Here, the medium exchange every three days and the treatment with the peptide were repeated (positive control: BMP2 […]). The incubation-completed plate well was washed two times with PBS, and then the cells were immobilized with an immobilization buffer, in which acetone, 37% formaldehyde, and citric acid solution were mixed, for 30 seconds. The following staining was carried out using the leukocyte alkaline phosphatase staining kit (SIGMA).
The cells were treated with a mixture, in which an FBB-alkaline solution was mixed with a sodium nitrite solution at 1:1, for 2 minutes, and then treated with a buffer composed of distilled water and naphthol AS-BI alkaline solution, followed by color development in an incubator at 37° C. for 1 hour.

[1] = tested on: alkaline phosphatase (ALP); settings: MC3T3-E1, three days, RT-PCR
Experimental: MC3T3-E1 (mouse osteoblast line) cells were seeded on a 6-well plate at a cell density of 1×10^5 cells/well. The cells incubated overnight were treated with the peptides at different concentrations (10 and 50 μg/ml), followed by incubation in an incubator at 37° C. for three days (positive control: 100 ng/ml BMP2 (Cell signaling)). After the incubation-completed cells were collected, the cells were treated with RNA extraction solution (Easy Blue, Intron) to prepare RNA, and then cDNA was synthesized using RT pre-mix (Intron). PCR was carried out using primers of respective markers (OPG, ALP, BSP) and PCR pre-mix (Intron).
Target-specific primer sequences used in PCR for osteogenic differentiation markers were as follows: OPG forward primer sequence, 5′-[sequence]-3′ and OPG reverse primer, 5′-[sequence]-3′ (annealing temperature, 60° C.); ALP forward primer sequence, 5′-[sequence]-3′ and ALP reverse primer, 5′-[sequence]-3′ (annealing temperature, 60° C.); BSP forward primer sequence, 5′-[sequence]-3′ and BSP reverse primer, 5′-[sequence]-3′ (annealing temperature, 60° C.)
5 μl of PCR product was loaded on 1% agarose gel, followed by electrophoresis, and then the bands were investigated using Gel-Doc.

KGF = experiment: Western blotting of hair growth protein KGF; type: cell-based, human; settings: HFDPC, 0.1-50 μg/ml, 24 hours
Experimental: (§3) In order to observe the changes in the expression of IGF1, KGF, and Wnt3a, which are proteins involved in the development of hair roots in the human hair follicle dermal papilla cells, the cells were treated with the peptides of the present invention for 24 hours, and then subjected to western blotting using specific antibodies, thereby observing the changes in hair growth-related proteins.
(§4) The cells were stabilized by the incubation overnight, and then treated with the peptides at different concentrations (0.1-50 μg/ml) for 24 hours. The cells were treated with the cell lysis buffer to obtain a lysate, followed by protein quantification, and then western blotting was performed with respect to IGF-1, KGF, and Wnt3a.
(§5) The test was carried out using anti-IGF-1 antibody (Santa Cruz Biotechnology, USA), anti-KGF antibody (Santa Cruz Biotechnology, USA), and anti-Wnt3a antibody (Santa Cruz Biotechnology, USA).

[2] = tested on: human umbilical vein endothelial cells (HUVEC); experiment: Cell proliferation assay (SRB), HUVEC; type: cell-based; settings: 1, 10 and 50 μg/ml, 72 hours
Experimental: (§6) In order to observe the cell proliferation effect on human hair follicle dermal papilla cells, human hair follicle germinal matrix cells, and human umbilical vein endothelial cells, which are main hair cells, each type of cells were seeded on a 96-well plate at a density of 3×10^3 cells/well, followed by incubation under conditions of 37° C. and 5% CO2 for 24 hours. After the medium was exchanged with the same culture medium completely excluding serum, the cells were treated with the peptides at different concentrations (1 μg/ml, 10 μg/ml, and 50 μg/ml), followed by incubation under the same conditions for 72 hours. After the incubation supernatant was removed, the cells were immobilized using ethanol, and washed three times with phosphate buffer saline (PBS). The wash solution was removed, and the cells were stained through the treatment with colorimetric SRB solution. After the cells were sufficiently washed with 1% acetic acid, the cells were observed using a microscope to observe the state of living cells. The absorbance was read at UV light of 560 nm, thereby measuring the survival conditions of cells

Phospho-PI3K = experiment: Western blotting using osteoblasts (PI3K phosphorylation); type: cell-based; settings: mouse osteoblast line, 50 μg/ml, 15 minutes
Experimental: The cells were treated with the peptides at 50 μg/ml for 15 minutes (positive control: HGF 50 ng/ml). The cells were treated with the cell lysis buffer to obtain a lysate, followed by protein quantification, and then western blotting was performed with respect to Phospho-PI3K (P-PI3K) using anti-pPI3K antibody (Santa Cruz Biotechnology, USA).

IL-1β = IL-1β ELISA in THP-1 cells treated with TNF-α; type: cell-based, human; settings: 10 μg/ml pre-treatment 30 minutes, 50 ng/ml TNF-α, 24 hours
Experimental: The human monocytes, THP-1 cells were seeded on a 24-well plate at a density of 2×10^6 cells/well. After incubation overnight, the cells were pre-treated with the samples at 10 μg/ml for 30 minutes, and treated with 50 ng/ml TNF-α, followed by incubation for 24 hours. The cell incubation medium was obtained, followed by centrifugation at 13,000 rpm for 10 minutes at 4° C., and then the supernatant was separated. ELISA was carried out using IL-1b and IL-8 ELISA kit (R&D system).

β-catenin = experiment: Western blotting of cell signaling material, β-catenin; type: cell-based, human; settings: HFDPC, 1 and 10 μg/ml, 30 minutes and 60 minutes
Experimental: as §1, §2

RAW264.7 cells = experiment: Proliferation assay of macrophages treated with TNF-α (SRB); type: cell-based, mouse; settings: 100 ng/ml TNF-α and 50 μg/ml peptide, 72 hours
Experimental: The mouse macrophage cell line, raw 264.7 cells were seeded on a 48-well plate at a density of 1×10^4 cells/well. After stabilization for 24 hours, the cells were incubated in a serum-free medium for 6 hours, and then simultaneously treated with 100 ng/ml TNF-α and 50 μg/ml peptide, followed by incubation for 72 hours. After the completion of the incubation, the supernatant was removed and the cells were immobilized using ethanol, and after the cell immobilization was ended, the cells were washed three times with phosphate buffer saline (PBS). After the wash solution was removed, the cells were treated with colorimetric SRB solution, and sufficiently washed with 1% acetic acid. Then, the cells were observed using a microscope to observe the conditions of living cells. The absorbance for the solution decolorized with 20 mM tris was read at UV light of 560 nm, thereby measuring the survival conditions of cells.

IGF-1 = experiment: Western blotting of hair growth protein IGF-1; type: cell-based, human; settings: HFDPC, 0.1-50 μg/ml, 24 hours
Experimental: as §3, §4, §5

[3] = tested on: human hair follicle dermal papilla cells (HFDPC); experiment: Cell proliferation assay (SRB), HFDPC; type: cell-based; settings: 1, 10 and 50 μg/ml, 72 hours
Experimental: as §6

Wnt3a = experiment: Western blotting of hair growth protein Wnt3a; type: cell-based, human; settings: HFDPC, 0.1-50 μg/ml, 24 hours
Experimental: as §3, §4, §5

Substance: NH2-Ala-Cys-Arg-Ser-Ala-Ile-Gly-Arg-Pro-Cys-COOH (H-ACRSAIGRPC-OH; cysteine pairing not given here) [SEQ ID NO: 1]
- phosphorylation of ERK (Phospho-ERK (pERK)): increased
- ALP expression (ALP staining) (MC3T3-E1 cells): increased
- expression of alkaline phosphatase (ALP) [1]: increased
- expression of KGF (KGF): increased
- cell proliferation, HUVEC [2]: increased in a concentration-dependent manner
- phosphorylation of PI3K by HGFR signal stimulation (Phospho-PI3K): increased
- expression of IL-1β increased by TNF-α treatment (IL-1β): inhibited
- expression of β-catenin (β-catenin): increased
- proliferation of RAW264.7 cells increased with TNF-α treatment (RAW264.7 cells): reduced
- expression of IGF-1 (IGF-1): increased
- cell proliferation, HFDPC [3]: increased in a concentration-dependent manner
- expression of Wnt3a (Wnt3a): increased

Source: patent publication US10238710B2, “Peptide having anti-inflammatory, osteogenic and hair growth promoting activities, and use of same” (CAREGEN CO., LTD., priority 2014, dated 2019)
